Assay in all cases: DiscoverX KinomeScreen kinase selectivity competition binding assay
In assay [1] the target is T1, panel of ninety-seven kinases (Homo sapiens, UniProt O15075).
T1 construct: purchased DiscoverX; host or cells: T7 phage in E. coli (BL21-derived) for most kinases; HEK-293 for the rest
Conditions: DCLK1; read-out: % Ctrl @ 3 μM. As to the method:
(§1) Atropisomer A-2 has been tested for off-target activity against a panel of ninety-seven kinases distributed across the kinome at a concentration of 3 μM using the DiscoverX KinomeScreen assay. The DiscoverX KinomeScreen assay is a site-directed competition binding assay which measures the binding affinity of a compound to a kinase, by use of a solid supported control compound which can bind or capture the kinases in solution. In the absence of a kinase-inhibitor test compound, all of the kinase will bind to the solid support. If a kinase-inhibitor test compound is added to the assay mix, the amount of kinase binding to the solid support will be reduced, the extent of reduction being dependent on the potency of the test compound as a kinase inhibitor. […] For most assays, kinase-tagged T7 phage strains were grown in parallel in 24-well blocks in an E. coli host derived from the BL21 strain. E. coli were grown to log-phase and infected with T7 phage from a frozen stock (multiplicity of infection=0.4) and incubated with shaking at 32° C. until lysis (90-150 minutes). The lysates were centrifuged (6,000×g) and filtered (0.2 μm) to remove cell debris. The remaining kinases were produced in HEK-293 cells and subsequently tagged with DNA for qPCR detection. Streptavidin-coated magnetic beads were treated with biotinylated small molecule ligands for 30 minutes at room temperature to generate affinity resins for kinase assays. The liganded beads were blocked with excess biotin and washed with blocking buffer (SeaBlock (Pierce), 1% BSA, 0.05% Tween 20, 1 mM DTT) to remove unbound ligand and to reduce non-specific phage binding. […] Test compounds were prepared as 40× stocks in 100% DMSO and directly diluted into the assay. All reactions were performed in polypropylene 384-well plates in a final volume of 0.02 ml. […] The beads were then re-suspended in elution buffer (1×PBS, 0.05% Tween 20, 0.5 μM non-biotinylated affinity ligand) and incubated at room temperature with shaking for 30 minutes. The kinase concentration in the eluates was measured by qPCR. Compounds that bind the kinase active site and directly (sterically) or indirectly (allosterically) prevent kinase binding to the immobilized ligand, will reduce the amount of kinase captured on the solid support. […] The strength of binding of the test molecule to the kinase can be expressed as the percent control (% Ctrl) The compound(s) were screened at 3000 nM concentration, and results for primary screen binding interactions are reported as ‘% Ctrl’, where lower numbers indicate stronger hits in the matrix on the following page(s). [formula] • negative control=DMSO (100% Ctrl) • positive control=control compound (0% Ctrl)

Assay [2] has as its target T2, panel of ninety-seven kinases (Homo sapiens, UniProt O15111).
T2 construct: purchased DiscoverX; host or cells: T7 phage in E. coli (BL21-derived) for most kinases; HEK-293 for the rest
Conditions: CHUK; read-out: % Ctrl @ 3 μM. On the procedure:
as §1

In assay [3] the target is T3, panel of ninety-seven kinases (Homo sapiens, UniProt O75116).
T3 construct: purchased DiscoverX; host or cells: T7 phage in E. coli (BL21-derived) for most kinases; HEK-293 for the rest
The note with it: ROCK2; read-out: % Ctrl @ 3 μM. As to the method:
as §1

Assay [4] has as its target T4, panel of ninety-seven kinases (Homo sapiens, UniProt P04626).
T4 construct: purchased DiscoverX; host or cells: T7 phage in E. coli (BL21-derived) for most kinases; HEK-293 for the rest
Conditions: ERBB2; read-out: % Ctrl @ 3 μM. As to the method: as §1

Assay [5] concerns the target T5, panel of ninety-seven kinases (Homo sapiens, UniProt P07333).
T5 construct: purchased DiscoverX; host or cells: T7 phage in E. coli (BL21-derived) for most kinases; HEK-293 for the rest
The note with it: CSF1R; read-out: % Ctrl @ 3 μM. On the procedure: as §1

In assay [6] the target is T6, panel of ninety-seven kinases (Homo sapiens, UniProt P08581).
T6 construct: purchased DiscoverX; host or cells: T7 phage in E. coli (BL21-derived) for most kinases; HEK-293 for the rest
Conditions: MET; read-out: % Ctrl @ 3 μM. As to the method:
as §1

Assay [7] addresses T7, panel of ninety-seven kinases (Homo sapiens, UniProt P09619).
T7 construct: purchased DiscoverX; host or cells: T7 phage in E. coli (BL21-derived) for most kinases; HEK-293 for the rest
The note with it: PDGFRB; read-out: % Ctrl @ 3 μM. As to the method: as §1

In assay [8] the target is T8, panel of ninety-seven kinases (Homo sapiens, UniProt P12931).
T8 construct: purchased DiscoverX; host or cells: T7 phage in E. coli (BL21-derived) for most kinases; HEK-293 for the rest
The note with it: SRC; read-out: % Ctrl @ 3 μM. On the procedure:
as §1

Assay [9] concerns the target T9, panel of ninety-seven kinases (Homo sapiens, UniProt P16234).
T9 construct: purchased DiscoverX; host or cells: T7 phage in E. coli (BL21-derived) for most kinases; HEK-293 for the rest
The note with it: PDGFRA; read-out: % Ctrl @ 3 μM. On the procedure: as §1

The target in assay [10] is T10, panel of ninety-seven kinases (Homo sapiens, UniProt P27448).
T10 construct: purchased DiscoverX; host or cells: T7 phage in E. coli (BL21-derived) for most kinases; HEK-293 for the rest
Conditions: MARK3; read-out: % Ctrl @ 3 μM. On the procedure: as §1

Assay [11] concerns the target T11, panel of ninety-seven kinases (Homo sapiens, UniProt P30530).
T11 construct: purchased DiscoverX; host or cells: T7 phage in E. coli (BL21-derived) for most kinases; HEK-293 for the rest
The note with it: AXL; read-out: % Ctrl @ 3 μM. On the procedure:
as §1

Assay [12] has as its target T12, panel of ninety-seven kinases (Homo sapiens, UniProt P31751).
T12 construct: purchased DiscoverX; host or cells: T7 phage in E. coli (BL21-derived) for most kinases; HEK-293 for the rest
The note with it: AKT2; read-out: % Ctrl @ 3 μM. As to the method: as §1

The target of assay [13] is T13, panel of ninety-seven kinases (Homo sapiens, UniProt P36888).
T13 construct: purchased DiscoverX; host or cells: T7 phage in E. coli (BL21-derived) for most kinases; HEK-293 for the rest
Conditions: FLT3; read-out: % Ctrl @ 3 μM. As to the method:
as §1

Assay [14] addresses T14, panel of ninety-seven kinases (Homo sapiens, UniProt P36897).
T14 construct: purchased DiscoverX; host or cells: T7 phage in E. coli (BL21-derived) for most kinases; HEK-293 for the rest
Conditions: TGFBR1; read-out: % Ctrl @ 3 μM. As to the method:
as §1

Assay [15] concerns the target T15, panel of ninety-seven kinases (Homo sapiens, UniProt P42336).
T15 construct: purchased DiscoverX; host or cells: T7 phage in E. coli (BL21-derived) for most kinases; HEK-293 for the rest
Conditions: PIK3CA; read-out: % Ctrl @ 3 μM. On the procedure:
as §1

The target in assay [16] is T16, panel of ninety-seven kinases (Homo sapiens, UniProt P49841).
T16 construct: purchased DiscoverX; host or cells: T7 phage in E. coli (BL21-derived) for most kinases; HEK-293 for the rest
Conditions: GSK3B; read-out: % Ctrl @ 3 μM. As to the method:
as §1

For assay [17], the target named is T17, panel of ninety-seven kinases (Homo sapiens, UniProt P50750).
T17 construct: purchased DiscoverX; host or cells: T7 phage in E. coli (BL21-derived) for most kinases; HEK-293 for the rest
The note with it: CDK9; read-out: % Ctrl @ 3 μM. On the procedure:
as §1

Assay [18] addresses T18, panel of ninety-seven kinases (Homo sapiens, UniProt P80192).
T18 construct: purchased DiscoverX; host or cells: T7 phage in E. coli (BL21-derived) for most kinases; HEK-293 for the rest
Conditions: MAP3K9; read-out: % Ctrl @ 3 μM. As to the method:
as §1

Assay [19] has as its target T19, panel of ninety-seven kinases (Homo sapiens, UniProt Q15303).
T19 construct: purchased DiscoverX; host or cells: T7 phage in E. coli (BL21-derived) for most kinases; HEK-293 for the rest
Conditions: ERBB4; read-out: % Ctrl @ 3 μM. As to the method: as §1

Assay [20] addresses T20, panel of ninety-seven kinases (Homo sapiens, UniProt Q15759).
T20 construct: purchased DiscoverX; host or cells: T7 phage in E. coli (BL21-derived) for most kinases; HEK-293 for the rest
The note with it: MAPK11; read-out: % Ctrl @ 3 μM. As to the method:
as §1

Assay [21] concerns the target T21, panel of ninety-seven kinases (Homo sapiens, UniProt Q96GD4).
T21 construct: purchased DiscoverX; host or cells: T7 phage in E. coli (BL21-derived) for most kinases; HEK-293 for the rest
The note with it: AURKB; read-out: % Ctrl @ 3 μM. As to the method:
as §1

T5 sequence (P07333 20-972): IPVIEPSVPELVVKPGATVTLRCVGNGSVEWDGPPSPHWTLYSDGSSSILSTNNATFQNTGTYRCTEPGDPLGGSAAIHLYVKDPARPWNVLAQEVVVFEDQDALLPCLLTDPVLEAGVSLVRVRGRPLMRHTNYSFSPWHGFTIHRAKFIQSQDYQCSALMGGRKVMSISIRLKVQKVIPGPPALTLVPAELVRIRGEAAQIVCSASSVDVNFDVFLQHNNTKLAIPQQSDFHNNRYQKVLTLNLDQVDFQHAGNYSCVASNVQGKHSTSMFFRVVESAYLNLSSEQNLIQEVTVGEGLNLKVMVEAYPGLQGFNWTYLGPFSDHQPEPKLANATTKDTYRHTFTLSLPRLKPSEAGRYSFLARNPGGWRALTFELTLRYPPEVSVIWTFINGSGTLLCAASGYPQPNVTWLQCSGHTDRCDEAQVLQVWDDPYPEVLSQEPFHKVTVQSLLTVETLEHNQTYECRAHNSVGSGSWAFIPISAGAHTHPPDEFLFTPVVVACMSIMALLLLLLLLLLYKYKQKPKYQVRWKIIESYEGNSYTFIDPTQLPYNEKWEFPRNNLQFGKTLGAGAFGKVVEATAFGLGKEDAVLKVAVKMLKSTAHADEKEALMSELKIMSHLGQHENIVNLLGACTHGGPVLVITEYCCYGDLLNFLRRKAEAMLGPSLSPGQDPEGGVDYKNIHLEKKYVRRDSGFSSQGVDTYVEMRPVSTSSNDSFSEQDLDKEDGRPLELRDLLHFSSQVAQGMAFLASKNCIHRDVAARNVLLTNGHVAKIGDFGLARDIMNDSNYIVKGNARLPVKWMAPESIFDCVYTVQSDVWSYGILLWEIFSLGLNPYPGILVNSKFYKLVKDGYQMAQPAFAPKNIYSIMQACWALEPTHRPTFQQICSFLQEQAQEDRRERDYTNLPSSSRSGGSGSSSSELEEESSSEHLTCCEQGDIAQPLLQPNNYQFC
T7 sequence (P09619 33-1106): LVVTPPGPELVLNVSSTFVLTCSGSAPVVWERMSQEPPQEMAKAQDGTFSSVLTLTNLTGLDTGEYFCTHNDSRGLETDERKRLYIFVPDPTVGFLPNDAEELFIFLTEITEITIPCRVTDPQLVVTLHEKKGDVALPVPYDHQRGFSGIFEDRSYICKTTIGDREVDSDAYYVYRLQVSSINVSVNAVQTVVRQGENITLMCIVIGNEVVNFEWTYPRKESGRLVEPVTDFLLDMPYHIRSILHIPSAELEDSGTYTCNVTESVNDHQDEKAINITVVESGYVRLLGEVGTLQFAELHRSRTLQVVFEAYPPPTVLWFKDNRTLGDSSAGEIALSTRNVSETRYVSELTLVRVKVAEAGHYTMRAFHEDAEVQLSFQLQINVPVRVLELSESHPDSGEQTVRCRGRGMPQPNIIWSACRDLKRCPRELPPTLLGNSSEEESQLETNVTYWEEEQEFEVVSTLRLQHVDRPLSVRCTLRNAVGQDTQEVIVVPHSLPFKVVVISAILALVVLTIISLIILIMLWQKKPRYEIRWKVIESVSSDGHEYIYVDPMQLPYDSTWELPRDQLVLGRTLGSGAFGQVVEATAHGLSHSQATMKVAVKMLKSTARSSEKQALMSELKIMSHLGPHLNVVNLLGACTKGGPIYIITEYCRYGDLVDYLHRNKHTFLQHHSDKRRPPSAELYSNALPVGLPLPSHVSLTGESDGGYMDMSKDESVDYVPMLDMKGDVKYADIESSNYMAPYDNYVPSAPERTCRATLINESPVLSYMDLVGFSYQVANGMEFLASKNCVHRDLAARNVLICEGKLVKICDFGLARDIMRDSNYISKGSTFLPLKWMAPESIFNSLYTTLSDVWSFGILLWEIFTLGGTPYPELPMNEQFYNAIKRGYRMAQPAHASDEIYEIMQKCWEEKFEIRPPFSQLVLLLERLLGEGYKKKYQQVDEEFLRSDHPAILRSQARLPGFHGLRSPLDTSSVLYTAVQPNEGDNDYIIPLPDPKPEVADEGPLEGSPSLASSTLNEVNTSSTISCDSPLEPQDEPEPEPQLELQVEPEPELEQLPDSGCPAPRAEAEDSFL
T11 sequence (P30530 26-894): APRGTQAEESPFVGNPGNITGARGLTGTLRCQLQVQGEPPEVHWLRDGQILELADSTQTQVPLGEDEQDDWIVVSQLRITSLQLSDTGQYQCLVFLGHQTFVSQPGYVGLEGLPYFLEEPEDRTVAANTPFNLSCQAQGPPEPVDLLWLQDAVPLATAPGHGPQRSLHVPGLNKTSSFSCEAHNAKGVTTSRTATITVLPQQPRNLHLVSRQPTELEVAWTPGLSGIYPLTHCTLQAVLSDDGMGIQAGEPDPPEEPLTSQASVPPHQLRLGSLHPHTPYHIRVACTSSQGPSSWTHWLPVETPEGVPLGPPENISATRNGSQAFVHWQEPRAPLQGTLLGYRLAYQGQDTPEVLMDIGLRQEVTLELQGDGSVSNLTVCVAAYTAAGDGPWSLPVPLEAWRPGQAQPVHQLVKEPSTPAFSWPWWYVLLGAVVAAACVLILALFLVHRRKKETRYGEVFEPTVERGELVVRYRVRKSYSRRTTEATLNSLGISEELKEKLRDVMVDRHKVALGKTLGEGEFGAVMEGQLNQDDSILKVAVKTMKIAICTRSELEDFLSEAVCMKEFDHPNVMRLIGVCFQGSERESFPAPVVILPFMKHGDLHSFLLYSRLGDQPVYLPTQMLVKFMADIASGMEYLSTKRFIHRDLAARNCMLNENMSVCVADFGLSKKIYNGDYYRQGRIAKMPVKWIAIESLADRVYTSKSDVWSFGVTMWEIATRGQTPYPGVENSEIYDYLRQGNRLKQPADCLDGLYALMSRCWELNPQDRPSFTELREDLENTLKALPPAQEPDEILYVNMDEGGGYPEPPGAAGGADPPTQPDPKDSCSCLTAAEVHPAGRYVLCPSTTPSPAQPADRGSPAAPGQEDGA
T14 sequence (P36897 34-503): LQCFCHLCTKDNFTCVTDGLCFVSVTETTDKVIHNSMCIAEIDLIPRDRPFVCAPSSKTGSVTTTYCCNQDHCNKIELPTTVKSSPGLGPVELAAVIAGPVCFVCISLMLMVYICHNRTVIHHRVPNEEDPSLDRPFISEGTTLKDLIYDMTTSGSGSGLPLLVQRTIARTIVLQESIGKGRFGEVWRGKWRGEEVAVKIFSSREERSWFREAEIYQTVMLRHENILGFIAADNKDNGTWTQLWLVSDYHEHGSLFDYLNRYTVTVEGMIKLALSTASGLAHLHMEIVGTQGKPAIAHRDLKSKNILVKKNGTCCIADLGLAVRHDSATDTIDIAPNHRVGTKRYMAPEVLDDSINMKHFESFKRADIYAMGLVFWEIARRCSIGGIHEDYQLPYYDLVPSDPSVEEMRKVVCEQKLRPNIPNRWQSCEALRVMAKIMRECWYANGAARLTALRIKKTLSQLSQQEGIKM
T20 sequence (Q15759 whole entry): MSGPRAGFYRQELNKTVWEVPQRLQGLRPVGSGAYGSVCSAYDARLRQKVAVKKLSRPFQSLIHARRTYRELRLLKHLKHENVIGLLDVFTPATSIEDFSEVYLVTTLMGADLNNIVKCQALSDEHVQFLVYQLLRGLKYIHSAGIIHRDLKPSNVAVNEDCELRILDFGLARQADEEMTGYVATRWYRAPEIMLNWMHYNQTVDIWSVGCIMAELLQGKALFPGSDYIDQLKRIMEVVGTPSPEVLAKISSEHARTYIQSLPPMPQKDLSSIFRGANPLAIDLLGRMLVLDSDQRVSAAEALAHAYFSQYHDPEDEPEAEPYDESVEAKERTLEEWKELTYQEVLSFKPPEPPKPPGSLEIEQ
T2 sequence (O15111 whole entry): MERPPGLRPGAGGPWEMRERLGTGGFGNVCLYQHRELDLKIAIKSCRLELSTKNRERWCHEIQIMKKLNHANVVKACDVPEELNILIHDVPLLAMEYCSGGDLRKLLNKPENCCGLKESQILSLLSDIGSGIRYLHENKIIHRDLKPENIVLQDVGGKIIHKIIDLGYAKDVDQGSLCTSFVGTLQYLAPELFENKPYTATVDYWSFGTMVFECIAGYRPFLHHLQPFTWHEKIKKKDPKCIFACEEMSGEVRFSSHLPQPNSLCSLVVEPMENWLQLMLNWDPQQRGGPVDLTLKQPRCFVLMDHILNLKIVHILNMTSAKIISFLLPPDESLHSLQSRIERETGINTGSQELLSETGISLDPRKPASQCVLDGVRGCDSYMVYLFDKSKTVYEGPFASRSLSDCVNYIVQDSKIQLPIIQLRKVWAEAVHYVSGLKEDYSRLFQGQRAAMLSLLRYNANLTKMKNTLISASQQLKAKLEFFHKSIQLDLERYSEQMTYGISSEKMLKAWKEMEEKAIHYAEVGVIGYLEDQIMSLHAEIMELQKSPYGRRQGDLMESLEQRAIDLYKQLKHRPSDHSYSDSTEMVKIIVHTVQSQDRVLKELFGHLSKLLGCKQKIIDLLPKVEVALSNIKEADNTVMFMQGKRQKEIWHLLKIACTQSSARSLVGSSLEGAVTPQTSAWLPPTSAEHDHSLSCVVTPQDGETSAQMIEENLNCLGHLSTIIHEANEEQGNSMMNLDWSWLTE
T8 sequence (P12931 whole entry): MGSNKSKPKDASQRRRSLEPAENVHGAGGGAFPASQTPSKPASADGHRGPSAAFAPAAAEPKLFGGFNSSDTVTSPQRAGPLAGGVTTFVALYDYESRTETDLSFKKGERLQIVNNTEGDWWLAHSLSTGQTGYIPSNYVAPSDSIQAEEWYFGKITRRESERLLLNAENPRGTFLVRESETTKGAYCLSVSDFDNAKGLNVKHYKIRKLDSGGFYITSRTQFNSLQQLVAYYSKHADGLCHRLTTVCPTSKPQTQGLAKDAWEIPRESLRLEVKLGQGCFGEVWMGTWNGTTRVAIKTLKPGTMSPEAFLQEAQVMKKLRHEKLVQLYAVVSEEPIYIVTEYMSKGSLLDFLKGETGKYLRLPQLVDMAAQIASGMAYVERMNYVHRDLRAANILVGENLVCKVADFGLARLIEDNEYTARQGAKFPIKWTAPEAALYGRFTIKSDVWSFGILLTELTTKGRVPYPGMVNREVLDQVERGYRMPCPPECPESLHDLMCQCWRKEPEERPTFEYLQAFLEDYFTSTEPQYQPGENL

In the case of `CN(C)CCNC(=O)c1ccc(-c2ccc(-c3ccc(Cl)cc3)n2-c2ccccc2C(F)(F)F)cc1` (single isomer, unassigned) [Atropisomer A-2, 4-[5-(4-chlorophenyl)-1-[2-(trifluoromethyl)phenyl]pyrrol-2-yl]-N-[2-(dimethylamino)ethyl]benzamide], the percent of control kinase binding to immobilized ligand at 3 µM in [1] came to 87%; in assay [2] it was 100%; in assay [3], 88%; in assay [4] it was 66%; in [5] it was 100%; in assay [6], 100%. In addition, the percent of control kinase binding to immobilized ligand at 3 µM in assay [7] is 100%; in assay [8], 100%; in [9] it was 100%; in assay [10], 100%; in assay [11], 93%; in [12] it was 100%. For the same molecule, the percent of control kinase binding to immobilized ligand at 3 µM in assay [13] is 100%; in [14] it was 95%; in assay [15], 100%; in assay [16], 88%; in assay [17] it was 97%; in assay [18], 96%. Besides, the percent of control kinase binding to immobilized ligand at 3 µM in assay [19] stood at 99%; in assay [20], 99%; in assay [21], 84%.

The record behind these values is patent US20220348565A1, “PHARMACEUTICAL COMPOUNDS” (SENTINEL ONCOLOGY LIMITED, priority 2019, published 2022).
